What was measured:
A. baumannii ATCC 17978 [1] = assay: Bactericidal test: colony count after treatment with 50 µM CPP–PNA; assay type: cell-based, Acinetobacter baumannii; settings: for Average CFU: mean of two plates, plated 24 h; for Average CFU / Bactericidal activity in MBC assay (in words): 50 µM CPP–PNA; for Average CFU / MBC (CFU) in 50 µM CPP–PNA: 4 h at 37 °C; for MBC (CFU) in 50 µM CPP–PNA: 1 × 10^7 CFU/mL inoculum, 50 µL spread on Muller–Hinton agar, 24 h at 37 °C
Text: Artificially synthesized CPP–PNA (carA, […]) conjugates were used to silence carA. Briefly, carA-specific oligonucleotides were identified from the genomic sequence of A. baumannii ATCC 17978 (CP049363.1). The CPP–PNA conjugates, namely KFFK (FFK)2–PNA, KKFK (FFK)2–PNA, and KKKK (FFK)2–PNA, were synthesized by HLB […] Co., LTD. (Daejeon, Republic of Korea). These conjugates were engineered to specifically bind to the translation initiation region of carA, which includes the TTG start codon and the Shine-Dalgarno sequence (TTTGGT) crucial to ribosomal interaction.
To prepare bacterial suspensions, cultures of A. baumannii ATCC 17978 were grown until the OD600 value reached 0.8. The CPP–PNA conjugates were prepared to achieve concentrations of 50 and 0 µM in a total volume of 100 µL per well in 96-well plates. Subsequently, 10 µL of the adjusted bacterial suspension was inoculated into each well (1 × 10^7 CFU/mL). The plates were then incubated at 37 °C for 4 h. Subsequently, 50 µL of each CPP–PNA conjugate-treated bacterial suspension was spread on Muller–Hinton agar plates, with each condition distributed across two plates. The plates were subsequently incubated at 37 °C for 24 h to enable bacterial growth and colony formation.

A. baumannii ATCC 17978 [2] = assay: MIC by broth microdilution (CLSI); assay type: cell-based, Acinetobacter baumannii; settings: CAMHB with TES buffer, 37 °C, 18–20 h, at least two independent experiments in duplicate
Text: CPP–PNA conjugates were synthesized by HLB […] Co., LTD. The binding sites within A. baumannii ATCC 17978 were predicted and analyzed using Geneious Prime (version 1 February 2025), enabling precise identification of target regions for subsequent antisense PNA design. Specifically, α-PNA modifications introduced arginine, while γ-PNA modifications incorporated guanidino-lysine. The diverse CPP–PNA and α- and γ-modified PNA oligomers were generated via solid-phase peptide synthesis using benzothiazole sulfonyl and standard fluorenylmethyloxycarbonyl chemistry procedures on an automatic synthesizer (HLB-[…]). The synthesized PNA oligomers were cleaved from the solid support resin using a mixed solution containing trifluoroacetic acid. The PNA mixture separated from the solid support was purified using reverse-phase high-performance liquid chromatography, and the purity and molecular weight were determined and confirmed using high-performance liquid chromatography and matrix-assisted laser desorption/ionization time-of-flight mass spectrometry (Figures S1 and S2). The MIC of each CPP–PNA conjugate was determined using the broth microdilution method in accordance with the Clinical and Laboratory Standards Institute guidelines. A. baumannii ATCC 17978 was used as the test strain. The CPP–PNA conjugates were tested at concentrations of […], 3.125, 6.25, 12.5, 25, and 50 µM in 100 µL of cation-adjusted Mueller–Hinton broth with N-Tris (hydroxymethyl) methyl-2-aminoethanesulfonic acid buffer (CAMHB; T3462; Thermo Fisher Scientific, Waltham, MA, USA). The microdilution plates were incubated at 37 °C for 18–20 h. A minimum of two independent experiments, each performed in duplicate, were conducted to ensure reproducibility.

Substance | Average CFU (A. baumannii ATCC 17978 [1]) | MBC (CFU) in 50 µM CPP–PNA (A. baumannii ATCC 17978 [1]; plate 1 of two) | MBC (CFU) in 50 µM CPP–PNA (A. baumannii ATCC 17978 [1]; plate 2 of two) | MIC (A. baumannii ATCC 17978 [2]) | Bactericidal activity in MBC assay (in words) (A. baumannii ATCC 17978 [1])
KKFK(FFK)2-TCAAACCAAAGCT: KKFK(FFK)2 cell-penetrating peptide conjugated to 13-mer antisense PNA TCAAACCAAAGCT targeting carA (all peptide nucleic acid (PNA); KKFK(FFK)2 peptide conjugated) | 10.5 CFU | 7 CFU | 14 CFU |  | 
KFFK(FFK)2-CGGGGGTGCTCAA: KFFK(FFK)2 conjugated to 13-mer PNA targeting carA start codon (all peptide nucleic acid (PNA); KFFK(FFK)2 cell-penetrating peptide conjugated to the PNA, attachment site not given here) |  |  |  | >50 µM | 
Control 4 (ftsZ): KFFK(FFK)2 conjugated to PNA GAGGCCATGAC targeting ftsZ [reference compound] |  |  |  | 50 µM | 
Control 5 (rne): KFFK(FFK)2 conjugated to PNA ACGTTTCATGG targeting rne [reference compound] |  |  |  | 50 µM | 
KFFK(FFK)2-TTACTGTTTAGAT: KFFK(FFK)2 conjugated to 13-mer PNA targeting carA stop codon (all peptide nucleic acid (PNA); KFFK(FFK)2 cell-penetrating peptide conjugated to the PNA, attachment site not given here) |  |  |  | 50 µM | 
KFFK(FFK)2-TCAAA*CCA*AAGCT: KFFK(FFK)2 conjugated to γ-modified 13-mer PNA targeting carA RBS (TCAAACCAAAGCT; KFFK(FFK)2 peptide conjugate, γ-modified PNA, chemistry not fully specified) |  |  |  | 25 µM | 
Control 3 (acpP): KFFK(FFK)2 conjugated to PNA TGATTTGCCAC targeting acpP [reference compound] |  |  |  | 25 µM | 
KFFK(FFK)2-TCAAACCAAAGCT: KFFK(FFK)2 cell-penetrating peptide conjugated to unmodified 13-mer antisense PNA TCAAACCAAAGCT targeting carA RBS (all peptide nucleic acid (PNA); KFFK(FFK)2 peptide conjugated) | 0 CFU | 0 CFU | 0 CFU | 25 µM | No A. baumannii colonies were detected
KKKK(FFK)2-TCAAACCAAAGCT: KKKK(FFK)2 cell-penetrating peptide conjugated to 13-mer antisense PNA TCAAACCAAAGCT targeting carA (all peptide nucleic acid (PNA); KKKK(FFK)2 peptide conjugated) | TNTC | TNTC | TNTC |  | no bactericidal activity

Reference: PMC12525168, “Targeting carA Using Optimized Antisense Peptide Nucleic Acid–Cell-Penetrating Peptide Conjugates in Acinetobacter baumannii: A Novel Antibacterial Approach” (International Journal of Molecular Sciences, 2025)
